Measurements as given in PubChem BioAssay AID330 (DTP/NCI, 2004).
Where “and” joins values, the source holds several entries; their conditions need not be identical. Identical values can stand only once. Toxic doses and inconclusive results are not listed. The calls were made as follows: active = survival T/C of 150% or more; inactive = T/C below 125% in these data.

Tested on: P388 leukemia ip, CD2F1 mice, survival T/C
Assay: NCI In Vivo Anticancer Drug Screen. Data for tumor model P388 Leukemia (intraperitoneal) in CD2F1 (CDF1) mice
Details: endpoint: median survival time, higher = longer survival
In short: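 Mice carrying the transplanted tumor received test compound or vehicle. Survival was recorded in each group, and the value is the treated-group measurement divided by that of the vehicle-treated control group.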

[1] = dose: 12.5 mg/kg/injection, schedule: Q01DX009 (ip), vehicle: distilled water + Tween-80
[2] = dose: 25.0 mg/kg/injection, schedule: Q01DX009 (ip), vehicle: distilled water + Tween-80
[3] = dose: 50.0 mg/kg/injection, schedule: Q01DX009 (ip), vehicle: distilled water + Tween-80
[4] = dose: 100.0 mg/kg/injection, schedule: Q01DX009 (ip), vehicle: distilled water + Tween-80
[5] = dose: 200.0 mg/kg/injection, schedule: Q01DX009 (ip), vehicle: distilled water + Tween-80
[6] = dose: 50.0 mg/kg/injection, schedule: Q01DX005 (ip), vehicle: Klucel (hydroxypropylcellulose) (HPC)
[7] = dose: 100.0 mg/kg/injection, schedule: Q01DX005 (ip), vehicle: Klucel (hydroxypropylcellulose) (HPC)
[8] = dose: 200.0 mg/kg/injection, schedule: Q01DX005 (ip), vehicle: Klucel (hydroxypropylcellulose) (HPC)
[9] = dose: 50.0 mg/kg/injection, schedule: Q01DX005 (ip), vehicle: saline
[10] = dose: 100.0 mg/kg/injection, schedule: Q01DX001 (ip), vehicle: Klucel (hydroxypropylcellulose) (HPC)
[11] = dose: 200.0 mg/kg/injection, schedule: Q01DX001 (ip), vehicle: Klucel (hydroxypropylcellulose) (HPC)
[12] = dose: 400.0 mg/kg/injection, schedule: Q01DX001 (ip), vehicle: Klucel (hydroxypropylcellulose) (HPC)
[13] = dose: 60.0 mg/kg/injection, schedule: Q01DX005 (ip), vehicle: saline with Tween-80
[14] = dose: 120.0 mg/kg/injection, schedule: Q01DX005 (ip), vehicle: saline with Tween-80
[15] = dose: 240.0 mg/kg/injection, schedule: Q01DX005 (ip), vehicle: saline with Tween-80
[16] = dose: 100.0 mg/kg/injection, schedule: Q04DX003 (ip), vehicle: Klucel (hydroxypropylcellulose) (HPC)
[17] = dose: 200.0 mg/kg/injection, schedule: Q04DX003 (ip), vehicle: Klucel (hydroxypropylcellulose) (HPC)
[18] = dose: 50.0 mg/kg/injection, schedule: Q01DX009 (ip), vehicle: saline with Tween-80
[19] = dose: 100.0 mg/kg/injection, schedule: Q01DX009 (ip), vehicle: saline with Tween-80
[20] = dose: 200.0 mg/kg/injection, schedule: Q01DX009 (ip), vehicle: saline with Tween-80
[21] = dose: 50.0 mg/kg/injection, schedule: Q01DX005 (ip), vehicle: saline with Tween-80
[22] = dose: 100.0 mg/kg/injection, schedule: Q01DX005 (ip), vehicle: saline with Tween-80
[23] = dose: 12.5 mg/kg/injection, schedule: Q01DX005 (ip), vehicle: saline with Tween-80
[24] = dose: 25.0 mg/kg/injection, schedule: Q01DX005 (ip), vehicle: saline with Tween-80
[25] = dose: 6.25 mg/kg/injection, schedule: Q01DX005 (ip), vehicle: saline with Tween-80

Measured: T/C

S=C(S)N1CCCCC1
inactive: dose: 3.13 mg/kg/injection, schedule: Q01DX009 (ip), vehicle: saline 88 % of control | dose: 6.25 mg/kg/injection, schedule: Q01DX009 (ip), vehicle: saline 91 % of control | dose: 12.5 mg/kg/injection, schedule: Q01DX009 (ip), vehicle: saline 86 % of control | dose: 25.0 mg/kg/injection, schedule: Q01DX009 (ip), vehicle: saline with Tween-80 91 % of control | dose: 25.0 mg/kg/injection, schedule: Q01DX009 (ip), vehicle: saline 86 % of control

O=C(CSC(=S)N1CCCCC1)c1ccccc1
inactive: [1] 95 % of control | [2] 101 % of control | [3] 100 % of control | [4] 101 % of control | [5] 99 % of control

CCc1nc(-c2ccccc2)nc2c1nc(-c1ccc(C)cc1)n2Nc1ccccc1
inactive: [6] 88 % of control | [7] 90 % of control | [8] 89 % of control

Cc1c(/C=C/c2oc3ccc(C(=N)N)cc3c2C)oc2ccc(C(=N)N)cc12
inactive: dose: 100.0 mg/kg/injection, schedule: Q04DX002 (ip), vehicle: saline 124 % of control

CS(=O)CC(=O)c1ccccn1 (stereo not given)
inactive: [9] 106 % of control | dose: 100.0 mg/kg/injection, schedule: Q01DX005 (ip), vehicle: saline 100 % of control | dose: 200.0 mg/kg/injection, schedule: Q01DX005 (ip), vehicle: saline 99 % of control

COC(=O)CN(C)P(=O)(N1CC1)N1CC1
active: dose: 7.5 mg/kg/injection, schedule: Q01DX005 (ip), vehicle: saline with Tween-80 198 % of control | dose: 15.0 mg/kg/injection, schedule: Q01DX005 (ip), vehicle: saline 197 % of control
inactive: dose: 1.87 mg/kg/injection, schedule: Q01DX005 (ip), vehicle: saline 107 % of control | dose: 3.75 mg/kg/injection, schedule: Q01DX005 (ip), vehicle: saline 124 % of control

CN1CC[C@]23c4c5ccc(O)c4OC2C(O)C=C[C@H]3[C@H]1C5 (stereo not given in full)
inactive: [10] 103 % of control | [11] 100 % of control | [12] 110 % of control

CC1=CC(C)=NC2NNC(=O)C12 (stereo not given)
inactive: [13] 110 % of control | [14] 109 % of control | [15] 105 % of control

O=c1[nH]c2c([N+](=O)[O-])cc(Cl)cc2nc1/C=C(\O)c1ccc(F)cc1
inactive: [13] 101 % of control | [14] 102 % of control | [15] 106 % of control

CN1CCCC(O)(C(=O)c2ccccc2)C1 (stereo not given)
inactive: dose: 50.0 mg/kg/injection, schedule: Q01DX009 (ip), vehicle: saline 108 % of control | dose: 100.0 mg/kg/injection, schedule: Q01DX009 (ip), vehicle: saline 90 % of control | [16] 102 % of control | dose: 200.0 mg/kg/injection, schedule: Q01DX009 (ip), vehicle: saline 90 % of control | [17] 104 % of control

Fc1cccc(-n2nc3c(c2-c2cccnc2)CCCc2ccccc2-3)c1
inactive: [10] 106 % of control | [11] 102 % of control | [12] 106 % of control

O=S1(=O)N=C(c2ccccc2)CC(c2ccccc2)N1 (stereo not given)
inactive: [18] 100 % of control | [19] 90 % of control | [20] 90 % of control

CC(=Nc1ccc(F)cc1)C1C(=O)c2ccccc2C1=O
inactive: [6] 100 % of control | [7] 100 % of control | [8] 100 % of control

CCCOc1ccc(C(=O)NCc2cccnc2)cc1C(=O)NCc1cccnc1
inactive: [21] 100 % of control | [22] 99 % of control | dose: 200.0 mg/kg/injection, schedule: Q01DX005 (ip), vehicle: saline with Tween-80 100 % of control

CCOC(=O)Cn1c(=O)cc(-c2ccccc2)oc1=O
inactive: [18] 106 % of control | [19] 107 % of control | [20] 90 % of control

NC(=S)N/N=C\C(=O)c1cccc([N+](=O)[O-])c1
inactive: [18] 94 % of control | [19] 105 % of control | [20] 96 % of control

O=C(O)CSC(=O)Nc1ccc(N=Nc2ccccc2)cc1
inactive: [21] 102 % of control | [22] 91 % of control

COc1ccc2c(c1)C13CCCCC1C(C2)N(C)CC3 (stereo not given)
inactive: [23] 94 % of control | [24] 100 % of control | [21] 100 % of control | [9] 99 % of control

COc1cc(C(=O)c2cc3c(cc2C=O)OCO3)cc(OC)c1OC
inactive: [6] 95 % of control | [7] 90 % of control | [8] 99 % of control

CCOC(=O)C(CC)C(O)(c1ccc2c(c1)OCO2)c1cc(OC)c(OC)c(OC)c1 (stereo not given)
inactive: [6] 96 % of control | [7] 94 % of control | [8] 93 % of control

COC(=O)/C=C/C(=O)NC(N)=O
inactive: dose: 6.25 mg/kg/injection, schedule: Q04DX003 (ip), vehicle: saline 100 % of control | dose: 12.5 mg/kg/injection, schedule: Q04DX003 (ip), vehicle: saline 109 % of control | dose: 25.0 mg/kg/injection, schedule: Q04DX003 (ip), vehicle: saline 100 % of control

O=C(OCC1OC(C2N(c3ccccc3)CCN2c2ccccc2)C(OC(=O)c2ccccc2)C1OC(=O)c1ccccc1)c1ccccc1 (stereo not given)
inactive: [1] 102 % of control | [2] 102 % of control | [3] 94 % of control | [4] 102 % of control | [5] 93 % of control

C=C(C)[C@@H]1CC[C@@H]2C(=CC[C@]3(C)C([C@H](C)CC/C=C(/C)C(=O)O)CC[C@@]23C)[C@@]1(C)CCC(=O)O (stereo not given in full)
inactive: dose: 1.41 mg/kg/injection, schedule: Q01DX009 (ip), vehicle: saline + alcohol 88 % of control | dose: 2.81 mg/kg/injection, schedule: Q01DX009 (ip), vehicle: saline + alcohol 93 % of control | dose: 5.63 mg/kg/injection, schedule: Q01DX009 (ip), vehicle: saline + alcohol 99 % of control | dose: 11.25 mg/kg/injection, schedule: Q01DX009 (ip), vehicle: saline + alcohol 99 % of control | dose: 90.0 mg/kg/injection, schedule: Q01DX009 (ip), vehicle: saline + alcohol 102 % of control

CCCCCCCCCCCC[n+]1cc2ccccc2cc1C
inactive: [25] 115 % of control and 122 % of control

Cc1cn(C)c2c1-c1[nH]ncc1CC2
inactive: dose: 50.0 mg/kg/injection, schedule: Q04DX003 (ip), vehicle: Klucel (hydroxypropylcellulose) (HPC) 100 % of control | [16] 99 % of control | [17] 103 % of control

[Cl][Ni][Cl].c1ccc2[nH]cnc2c1.c1ccc2[nH]cnc2c1
inactive: [25] 95 % of control | [23] 90 % of control | [24] 92 % of control

C/C=C/N=NNc1ccc(OC)cc1
inactive: dose: 100.0 mg/kg/injection, schedule: Q04DX003 (ip), vehicle: saline + Tween-80 + alcohol 105 % of control | dose: 200.0 mg/kg/injection, schedule: Q04DX003 (ip), vehicle: saline + Tween-80 + alcohol 99 % of control

COCC1OC2OC3C(COC)OC(OC4C(COC)OC(OC5C(COC)OC(OC6C(COC)OC(OC7C(COC)OC(OC8C(COC)OC(OC1C(O)C2O)C(O)C8O)C(O)C7O)C(O)C6O)C(O)C5O)C(O)C4O)C(O)C3O (stereo not given) (tested in a mixture with another compound)
inactive: dose: 25.0 mg/kg/injection, schedule: Q01DX009 (ip), vehicle: Klucel (hydroxypropylcellulose) (HPC) 100 % of control and 102 % of control | dose: 50.0 mg/kg/injection, schedule: Q01DX009 (ip), vehicle: Klucel (hydroxypropylcellulose) (HPC) 99 % of control and 100 % of control | dose: 100.0 mg/kg/injection, schedule: Q01DX009 (ip), vehicle: Klucel (hydroxypropylcellulose) (HPC) 98 % of control | dose: 200.0 mg/kg/injection, schedule: Q01DX009 (ip), vehicle: Klucel (hydroxypropylcellulose) (HPC) 95 % of control and 97 % of control | dose: 400.0 mg/kg/injection, schedule: Q01DX009 (ip), vehicle: Klucel (hydroxypropylcellulose) (HPC) 93 % of control and 95 % of control

COC(=O)/C(=C(\C)C=O)N1C(=O)C(NC(=O)c2ccccc2)C1SSc1nc2ccccc2s1 (stereo not given)
inactive: [10] 108 % of control | [11] 95 % of control | [12] 112 % of control
